What was measured:
[1] = test system: P388/ADR; assay: Dose response of growth, tumor cell line; type: cell-based, murine; settings: miscellaneous
Experimental: (§1) Indeed, 70% of the cell lines were shown not only to experience precluded growth, but cell death, when exposed to less then 100 μM of the active ingredient.

[2] = test system: human tumor cell lines; assay: Example 5: dose response of growth of human tumor cell lines, overall panel; type: cell-based
Experimental: as §1

[3] = mouse
[4] = test system: L1210 mouse cells; assay: Example 3: growth of L1210 mouse cells with bis(halomethyl)phenanthrolines plus copper, with or without BCS; type: cell-based; settings: at highest concentration tested (3 μM); copper 10 μM, BCS 100 μM
Experimental: Bis(halomethyl)phenanthroline compounds were synthesized according to the method of Newkome et al., J. Org. Chem., 48, 5112-5114 (1983). Such compounds, namely, 2,9-bis(bromomethyl)phenanthroline and 2,9-bis(chloromethyl)phenanthroline, were added in the presence of copper, but with or without BCS (the copper chelator shown in Examples 1 and 2 to reduce inhibitory activity), to the culture media of L1210 mouse cells, using the same methods of Examples 1 and 2. The concentrations of copper and BCS used in these experiments were 10 μM and 100 μM, respectively. The growth of the cells as a percent of control were determined, and the results plotted in the graph of FIG. 3, wherein open squares (.quadrature.) represent the compound plus copper chelate and solid squares (.box-solid.) represent the compound together with both copper and BCS addition to the culture medium.

ClCc1ccc2ccc3ccc(CCl)nc3c2n1 [2,9-bis(chloromethyl)-1,10-phenanthroline]
IC50 ([1]; Mus musculus, read-out: 50% Growth (Relative to Control)): 355 nM | IC100 ([1]; Mus musculus, read-out: No Growth (Relative to Control)): 3.82 µM | CC50 ([1]; read-out: 50% Loss (50% kill)): > 100000 nM | IC (total growth inhibition) ([2]; Homo sapiens, average, majority of cell lines, read-out: average concentration to preclude growth of the transformed cells in vitro, majority of cell lines): ~5.66 µM | cessation of growth of transformed cells ([2]; human tumor cell lines): nearly all transformed cells cease growth in the presence of micromolar concentrations | tolerated in vivo concentration relative to 100 μM in vitro [3]: at least 8.5 times | toxicity in an animal ([3]; in vivo, 250 mg/kg): not toxic | tolerability in mammals compared with the brominated derivative ([3]; in vivo, ip): better tolerated | difference between the copper-chelated and the unchelated derivative [4]: 10%

— patent US5545639A, “Method of inhibiting transformed cells” (The United States of America as represented by the …, priority 1994, dated 1996)
